The subject of assay [1] is Jurkat. Kind of assay: MTS proliferation assay, Jurkat. Particulars: 72 h incubation, read-out: MTS proliferation assay IC 50 Jurkat. The format is cell-based, human. In short, it runs like this:
(§1)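 Seed cells (1.5*10^3-10^4/well) 24 h ahead; add compound, final 10/3/1/0.3 μM; incubate 72 h, 37 °C, 7.5% CO2; MTS 3 h; read A492.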
(Formazan colour is commonly taken as a measure of viable cells.)

Assay [2] concerns HT1080. Nature of the assay: MTS proliferation assay, HT1080. The format is cell-based, human. Conditions: HT1080, 72 h incubation; read-out: MTS proliferation assay IC 50 HT1080. On the procedure: Cell lines are cultured in RPMI-1640 tissue culture medium containing either 5% or 10% fetal calf serum, 0.05 mM 2-mercaptoethanol, 2 mM glutamine and penicillin/streptomycin 50 μg/ml (complete medium) (Sigma, Buchs, Switzerland). General growth conditions are 37° C. and 7.5% CO2.
The following human cell lines (either EGFP transfected or not) are being used: HeLa (ATCC: CCL-2), KB (ATCC: CCL-17), MCF7 (ATCC: HTB-22), SK-BR-3 (ATCC: HTB-30), SK-Mel 1 (ATCC: HTB-67), SK-Mel 28 (ATCC: HTB-72), PC-3 (ATCC: CRL-1435), SW 480 (ATCC: CCL-228), NCl-H460 (ATCC: HTB-177), NCl-H1792 (ATCC: CRL-5895), HT1080 (ATCC: CCL-21), Jurkat (ATCC: TIB-152), Ramos (ATCC: CRL-1596), Raji (ATCC: CCL-86), H9 (ATCC: HTB-176), Hut78 (ATCC: TIB-161), K562 (ATCC: CCL 243), HL-60 (ATCC: CCL 240), U-87MG (ATCC: HTB-14), HepG2 (ATCC: HB-8065), U-2 OS (ATCC: HTB-96), Saos-2 (ATCC: HTB-85), U937 (ATCC: CRL 1593), Hs 578T (ATCC: HTB 126), HBL-100 (ATCC: HTB 124), Molt-4 (ATCC: CRL 1582).
The assay is performed in 96 well tissue culture plates. The cells (range: 1.5*10^3-10^4) are seeded out in 80 μl complete medium 24 h prior to compound treatment. The test compounds are added in 20 μl complete medium containing max 5% DMSO. The final compound concentrations in the assays are 10 μM, 3 μM, 1 μM and 0.3 μM, respectively. The assay plates are incubated for 72 h at culture conditions. The MTS reagent is prepared according to the manufacturer's protocol (Promega G1111). 20 μl MTS reagent are added to each well, the assay plates are quickly spun and incubated for another 3 h at culture conditions. Subsequently, the plates are shortly shaked and absorption measured with a microplate-reader at 492 nm.

Assay [3] deals with HeLa. Nature of the assay: MTS proliferation assay, HeLa. It is filed as cell-based, human. Particulars: 72 h incubation, read-out: MTS proliferation assay IC 50 HeLa. The method in brief: as §1
The subject of assay [4] is adherent cells or suspension cells. Nature of the assay: Hoechst 33342 nuclear staining (fraction of apoptotic nuclei). It is filed as cell-based. More on the design: key: 0 relating to no activity; 1 relating to weak activity comprising less than 70% of the cells; score 2 relating to strong activity comprising more than 70% of the cells.
Assay [5] concerns MRC5. Kind of assay: MTS proliferation assay, MRC5. It is filed as cell-based. Conditions: MRC5, 72 h incubation; read-out: MTS proliferation assay IC 50 MRC5. In short, it runs like this:
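RPMI-1640 + 5% or 10% FCS; seeded 24 h pre-dose; cpd final 10/3/1/0.3 μM, max 5% DMSO in added volume; 72 h, 37° C, 7.5% CO2; MTS 3 h; A492.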

With `N#Cc1ccc(C(=O)Cn2c(-c3nonc3N)nc3ccccc32)cc1` [Example 63], the IC50 in assay [1], in assay [2], in assay [3] and in assay [5] was greater than 1000 nM throughout. Besides, the “Hoechst 33342 nuclear staining score” value was found to be 0 in assay [4] (H460, conc 0.01 μm); 0 in assay [4] (H460, conc 0.1 μm); 0 in assay [4] (H460, conc 1 μm); 0 in assay [4] (HeLa, conc 0.01 μm); 0 in assay [4] (HeLa, conc 0.1 μm); 0 in assay [4] (HeLa, conc 1 μm). The “Hoechst 33342 nuclear staining score” value in assay [4] (Jily, conc 0.01 μm) was 0; in assay [4] (Jily, conc 0.1 μm) it was 0; in assay [4] (Jily, conc 1 μm) it was 0; in assay [4] (Jurkat, conc 0.01 μm) it was 0; in assay [4] (Jurkat, conc 0.1 μm), 0; in assay [4] (Jurkat, conc 1 μm) it was 0. Moreover, the “Hoechst 33342 nuclear staining score” value in assay [4] (MRC5, conc 0.01 μm) is 0; in assay [4] (MRC5, conc 0.1 μm), 0; in assay [4] (MRC5, conc 1 μm), 0; in assay [4] (PBLs, conc 0.01 μm), 0; in assay [4] (PBLs, conc 0.1 μm), 0; in assay [4] (PBLs, conc 1 μm), 0.
Turning to `Cc1cc2nc(-c3nonc3N)n(CC(=O)c3ccc(Cl)cc3)c2cc1C` [Example 110], the IC50 in assay [1], in assay [2], in assay [3] and in assay [5] was greater than 1000 nM in each case. Further, the “Hoechst 33342 nuclear staining score” value in assay [4] (H460, conc 0.01 μm) is on record as 0; in assay [4] (H460, conc 0.1 μm) it was 0; in assay [4] (H460, conc 1 μm), 0; in assay [4] (HeLa, conc 0.01 μm), 0; in assay [4] (HeLa, conc 0.1 μm), 0; in assay [4] (HeLa, conc 1 μm), 0. Also, the “Hoechst 33342 nuclear staining score” value in assay [4] (Jily, conc 0.01 μm) came to 0; in assay [4] (Jily, conc 0.1 μm), 0; in assay [4] (Jily, conc 1 μm), 0; in assay [4] (Jurkat, conc 0.01 μm), 0; in assay [4] (Jurkat, conc 0.1 μm) it was 0; in assay [4] (Jurkat, conc 1 μm), 0. Moreover, the “Hoechst 33342 nuclear staining score” value in assay [4] (MRC5, conc 0.01 μm) is 0; in assay [4] (MRC5, conc 0.1 μm) it was 0; in assay [4] (MRC5, conc 1 μm), 0; in assay [4] (PBLs, conc 0.01 μm), 0; in assay [4] (PBLs, conc 0.1 μm), 0; in assay [4] (PBLs, conc 1 μm), 0.
As to `COc1ccc(C(=O)Cn2c(-c3nonc3N)nc3cc(C)c(C)cc32)cc1` [Example 111], the IC50 in assay [1], in assay [2], in assay [3] and in assay [5] was greater than 1000 nM throughout. The “Hoechst 33342 nuclear staining score” value in assay [4] (H460, conc 0.01 μm) turned out to be 0; in assay [4] (H460, conc 0.1 μm), 0; in assay [4] (H460, conc 1 μm), 0; in assay [4] (HeLa, conc 0.01 μm), 0; in assay [4] (HeLa, conc 0.1 μm) it was 0; in assay [4] (HeLa, conc 1 μm), 0. Besides, the “Hoechst 33342 nuclear staining score” value in assay [4] (Jily, conc 0.01 μm) was 0; in assay [4] (Jily, conc 0.1 μm), 0; in assay [4] (Jily, conc 1 μm), 0; in assay [4] (Jurkat, conc 0.01 μm), 0; in assay [4] (Jurkat, conc 0.1 μm), 0; in assay [4] (Jurkat, conc 1 μm), 0. In addition, the “Hoechst 33342 nuclear staining score” value in assay [4] (MRC5, conc 0.01 μm) amounted to 0; in assay [4] (MRC5, conc 0.1 μm), 0; in assay [4] (MRC5, conc 1 μm), 0; in assay [4] (PBLs, conc 0.01 μm), 0; in assay [4] (PBLs, conc 0.1 μm), 0; in assay [4] (PBLs, conc 1 μm) it was 0.
As for `Cc1cc2nc(-c3nonc3N)n(CC(=O)c3ccc(-c4ccccc4)cc3)c2cc1C` [Example 112], the IC50 in assay [1], in assay [2], in assay [3] and in assay [5] was greater than 1000 nM throughout. Further, the “Hoechst 33342 nuclear staining score” value is reported as 0 in assay [4] (H460, conc 0.01 μm); 0 in assay [4] (H460, conc 0.1 μm); 0 in assay [4] (H460, conc 1 μm); 0 in assay [4] (HeLa, conc 0.01 μm); 0 in assay [4] (HeLa, conc 0.1 μm); 0 in assay [4] (HeLa, conc 1 μm). Moreover, the “Hoechst 33342 nuclear staining score” value in assay [4] (Jily, conc 0.01 μm) turned out to be 0; in assay [4] (Jily, conc 0.1 μm), 0; in assay [4] (Jily, conc 1 μm), 0; in assay [4] (Jurkat, conc 0.01 μm) it was 0; in assay [4] (Jurkat, conc 0.1 μm), 0; in assay [4] (Jurkat, conc 1 μm), 0. Besides, the “Hoechst 33342 nuclear staining score” value in assay [4] (MRC5, conc 0.01 μm) is 0; in assay [4] (MRC5, conc 0.1 μm), 0; in assay [4] (MRC5, conc 1 μm), 0; in assay [4] (PBLs, conc 0.01 μm) it was 0; in assay [4] (PBLs, conc 0.1 μm) it was 0; in assay [4] (PBLs, conc 1 μm), 0.
Regarding `COc1cc2nc(-c3nonc3N)n(CC(=O)c3ccccc3)c2cc1OC` [Example 113], the IC50 in assay [1], in assay [2], in assay [3] and in assay [5] was greater than 1000 nM throughout. The “Hoechst 33342 nuclear staining score” value turned out to be 0 in assay [4] (H460, conc 0.01 μm); 0 in assay [4] (H460, conc 0.1 μm); 0 in assay [4] (H460, conc 1 μm); 0 in assay [4] (HeLa, conc 0.01 μm); 0 in assay [4] (HeLa, conc 0.1 μm); 0 in assay [4] (HeLa, conc 1 μm). Besides, the “Hoechst 33342 nuclear staining score” value in assay [4] (Jily, conc 0.01 μm) stood at 0; in assay [4] (Jily, conc 0.1 μm) it was 0; in assay [4] (Jily, conc 1 μm), 0; in assay [4] (Jurkat, conc 0.01 μm), 0; in assay [4] (Jurkat, conc 0.1 μm) it was 0; in assay [4] (Jurkat, conc 1 μm), 0. Moreover, the “Hoechst 33342 nuclear staining score” value is reported as 0 in assay [4] (MRC5, conc 0.01 μm); 0 in assay [4] (MRC5, conc 0.1 μm); 0 in assay [4] (MRC5, conc 1 μm); 0 in assay [4] (PBLs, conc 0.01 μm); 0 in assay [4] (PBLs, conc 0.1 μm); 0 in assay [4] (PBLs, conc 1 μm).
Regarding `COc1cc2nc(-c3nonc3N)n(CC(=O)c3ccc(Cl)cc3)c2cc1OC` [Example 114], the IC50 in assay [1], in assay [2], in assay [3] and in assay [5] was greater than 1000 nM throughout. Besides, the “Hoechst 33342 nuclear staining score” value in assay [4] (H460, conc 0.01 μm) amounted to 0; in assay [4] (H460, conc 0.1 μm), 0; in assay [4] (H460, conc 1 μm) it was 0; in assay [4] (HeLa, conc 0.01 μm), 0; in assay [4] (HeLa, conc 0.1 μm), 0; in assay [4] (HeLa, conc 1 μm), 0. Moreover, the “Hoechst 33342 nuclear staining score” value in assay [4] (Jily, conc 0.01 μm) came out at 0; in assay [4] (Jily, conc 0.1 μm) it was 0; in assay [4] (Jily, conc 1 μm) it was 0; in assay [4] (Jurkat, conc 0.01 μm), 0; in assay [4] (Jurkat, conc 0.1 μm) it was 0; in assay [4] (Jurkat, conc 1 μm) it was 0. Moreover, the “Hoechst 33342 nuclear staining score” value was found to be 0 in assay [4] (MRC5, conc 0.01 μm); 0 in assay [4] (MRC5, conc 0.1 μm); 0 in assay [4] (MRC5, conc 1 μm); 0 in assay [4] (PBLs, conc 0.01 μm); 0 in assay [4] (PBLs, conc 0.1 μm); 0 in assay [4] (PBLs, conc 1 μm).

(Values after patent USRE42890E1, “Furazanobenzimidazoles” (Basilea Pharmaceutica AG, priority 2003, dated 2011).)
